Results reported in patent US7157477B2, “Aliphatic amino-substituted demethoxylated hypocrellins and their synthesis” (Altachem Pharma Ltd., priority 2000, dated 2007).
“Also recorded” adds a separate entry of the source.

What was measured:
HeLa cells [1] = assay: Sensitizer localization by fluorescence microscopy; assay type: cell-based; details: 4 μM; HB 15 min, 2-BA-2-DMHB 6 h
Experimental: Cells growing on glass were incubated in DMEM with 4 μM HB for 15 min or with 4 μM 2-BA-2-DMHB for 6 h at 37° C. Fluorescence was visualized by Nikon FXA microscope to assess sites of sensitizer location (excitation=400–450 nm, emission=600–650 nm).

[2] = in vivo; cited from earlier work
[3] = system: EMT6 Ed mouse tumor cells; details: 24 J cm−2; Estey's results [8]; cited from earlier work
HeLa cells [4] = assay: DNA agarose gel electrophoresis (DNA ladder); assay type: cell-based; details: for DNA ladder, photosensitizer alone: 4 μM incubation, no light; for DNA ladder at early times: 3 and 6 h post-irradiation; for DNA ladder after photosensitization: 24 h after treatment at LD70 and LD90
Experimental: Stock sensitizer-DMSO solutions were diluted with DMEM containing 1% FBS. […] The cells were detached using 0.2% trypsin/0.5 mM EDTA solution in PBS and centrifuge-washed to remove unbound dyes. The cells were then transferred to 35-mm dishes (Costar)) 1 ml inch dish containing 3×10s cells, and irradiated with different doses of light. […] Immediately after irradiation, 2 ml DMEM containing 7.5% FBS was added to each dish.
The DNA was extracted as described previously [18] with some modification. Cells (2×106) were detached with the use of 0.2% trypsin/0.5 mM EDTA solution washed with PBS and pelleted by centrifugation. The cell pellets were suspended in lysis buffer consisting of 0.5% sodium dodecyl sulfate (SDS), 2 mM EDTA, 100 mg/ml proteinase K, and SO mM Tris-HC buffer (pH 8.0). After 24 h lysis at 37° C., the DNA was extracted with an equal volume of water-saturated phenol/chloroform/isoamyl alcohol (25:24:1). The aqueous phase was collected and DNA was precipitated with 0.5 volume ammonium acetate and 2.5 volumes cold absolute ethanol, and stored overnight at −20° C. The DNA was dissolved in TE (0.5 M EDTA in 1 M Tris-HCl buffer, pH 8.0) and incubated with DNase-free RNase A (100 mg/ml) at 37° C. for 1 h. The samples were electrophoresed for 3 h at 60 V in 1.5% agarose gel containing 0.5 μg ml^−1 ethidium bromide and visualized by UV transillumination.

HeLa cells [5] = assay: Dark toxicity, MTT assay; assay type: cell-based; details: HB 15 min, 2-BA-2-DMHB 6 h; highest concentration tested 100 μM
Experimental: The dark toxicity characteristic of each compound was assessed separately following a similar procedure for cell exposure to graded doses of […] for 15 min or 2-BA-2-DMHB for 6 h. Precautions were taken to avoid exposure of the cells to light throughout the period when'the cells were exposed to, or contained, photosensitizers.

HeLa cells [6] = assay: Distribution ratio (cellular uptake by fluorescence); assay type: cell-based; details: for distribution ratio [Sen/g cells]/[Sen/ml medium]: extra-cellular drug 0 to 5 μM, HB 15 min, 2-BA-2-DMHB 6 h, 37° C.
Experimental: HeLa cells were maintained as monolayer culture in DMEM containing 5% FBS and antibiotics PS (80 U/ml penicillin and 100 μg/ml streptomycin) at 37° C. in a humidified 5% CO2 incubator.
The distribution ratio or the photosensitizer is defined as [Sen/g cells]/[Sen/ml medium]. The values were measured as described previously. Exponentially growing cells were incubated in DMEM with HB for 15 min or with 2-BA-2-DMHB for 6 h at 37° C., ranging from 0 to 5 μM. […] The washed pellets (2×10^6) were dispersed in 3 ml of 10 mM Triton X-100 detergent. These solutions were excited at 460 nm and the fluorescence emission spectra were acquired using Hitachi-F4500 fluorescence spectrophotometer. Fluorescence at 610 nm was determined, corrected for the fluorescence of control (drug-free) sample, and compared with a standard fluorescence-intensity curve prepared with HB and 2-BA-2-DMHB solutions of known concentration.

[7] = Absorption spectra of photosensitizers in chloroform; assay type: physicochemical; details: for log6 at first band λmax / log6 at second band λmax / log6 at third band λmax / λmax (nm), first band / λmax (nm), second band / λmax (nm), third band: in chloroform
[8] = Singlet oxygen yield by DPA bleaching method; assay type: physicochemical; details: in DMSO
Experimental: (§1) Singlet oxygen yields were determined as previously reported by the DPA bleaching method. The electron spin resonance (ESR) measurement of, spin trapping of DMPO was used to determine the generation of O2 by hypocrellins.

AIDS = details: cited from earlier work
HeLa cells [9] = assay: Flow cytometric detection of DNA fragmentation (PI staining); assay type: cell-based; details: for induction of apoptosis: evidenced by Hoechst staining, gel electrophoresis and flow cytometry; for hypoploid cell population: photosensitized cells
Experimental: Stock sensitizer-DMSO solutions were diluted with DMEM containing 1% FBS. […] The cells were detached using 0.2% trypsin/0.5 mM EDTA solution in PBS and centrifuge-washed to remove unbound dyes. The cells were then transferred to 35-mm dishes (Costar)) 1 ml inch dish containing 3×10s cells, and irradiated with different doses of light. The light source was a Red Light Treatment Instrument (Institute of Electronic Academia Sinica, China), Its total power output, more than 90% at 600–700 nm was 50 mW cm^2 at the position of the, samples, measured with BTY-8204 radiometer (Beijing Institute of Solar Energy, China). Immediately after irradiation, 2 ml DMEM containing 7.5% FBS was added to each dish. Then a portion of the cells was assessed for survival as follows and the rest were incubated in the medium until they could be checked for nucleus staining, DNA fragmentation and flow cytometry analysis.
A propidium iodide (PI) staining technique was used to assess the status of cellular DNA [19]. Cells were washed twice with ice-cold PBS and then permeabilized and fixed in 80% ethanol at 4° C. for 24 h. Cells were washed twice with PBS and suspended in PBS with RNase A (100 mg/ml) and incubated at 37° C. for 30 min. At this point the PI solution (10 mg/ml in PBS) was added to the cells in RNase solution, and the incubation was continued for 30 min at 4° C. After that, the cells were analyzed by Epics XL flow cytometer (Coulter, USA).

[10] = Superoxide anion radical generation by DMPO spin-trapping ESR; assay type: physicochemical; details: in DMSO, relative to HB
Experimental: as §1
DMPO spin-trapping ESR measurement was used here to verify the formation of superoxide anion radical generated by photosensitization of HB and 2-BA-2-DMHB.

HeLa cells [11] = details: for photopotentiation factor (LD50 dark / LD50 with 24 J cm−2 red light): MTT assay
Experimental: Stock sensitizer-DMSO solutions were diluted with DMEM containing 1% FBS. […] The cells were detached using 0.2% trypsin/0.5 mM EDTA solution in PBS and centrifuge-washed to remove unbound dyes. The cells were then transferred to 35-mm dishes (Costar)) 1 ml inch dish containing 3×10s cells, and irradiated with different doses of light. […] Immediately after irradiation, 2 ml DMEM containing 7.5% FBS was added to each dish. Then a portion of the cells was assessed for survival as follows and the rest were incubated in the medium until they could be checked for nucleus staining, DNA fragmentation and flow cytometry analysis.
Cell survival was estimated by the MTT assay [11,15,16]. PDT-treated cells were transferred into flat-bottomed 96-well plates (Costar) 100 μl in each well containing 1×10^4 cells and the cells were incubated at 37° C. in a. CO2, incubator for 20 h. Viability was determined by adding 10 μl MTT (10 mg ml^−1) to each well, and the mixture was incubated for 4 h at 37° C. Culture medium was then replaced with dimethylsulfoxide to dissolve the formazan crystals. […] Samples were measured in 12 replicates and each experiment was repeated at least twice. Survival of PDT-treated cells was normalized against cells incubated with photosensitizer alone.

HeLa cells [12] = assay: Hoechst 33342 nuclear staining for apoptotic nuclei; assay type: cell-based
Experimental: Treated and control cells were incubated in DMEM with 0.5% FBS for 24 h at 37° C., then collected by detachment and centrifugation and incubated in a growth medium (FBS free) containing 5 μM H0342 for 5 min at 37° C. Nuclear fragmentation was assessed by fluorescence microscopy using Nikon FxA microscope. The EX wavelength was 330–380 nm with EM monitored at 420–450 nm.

Structure (SMILES) | sites of sensitizer localization (HeLa cells [1]) | toxicity in animals [2] | DNA ladder, photosensitizer alone (HeLa cells [4]) | DNA ladder at early times (HeLa cells [4]) | DNA ladder after photosensitization (HeLa cells [4]) | LD50 in the dark (HeLa cells [5]) | distribution ratio [Sen/g cells]/[Sen/ml medium] (HeLa cells [6]) | log6 at first band λmax [7] | log6 at second band λmax [7] | log6 at third band λmax [7] | λmax (nm), first band [7] | λmax (nm), second band [7] | λmax (nm), third band [7] | induction of apoptosis (HeLa cells [9]) | hypoploid cell population (HeLa cells [9]; LD90) | photopotentiation factor (LD50 dark / LD50 with 24 J cm−2 red light) (HeLa cells [11]) | also measured
COc1c(O)c2c(=O)cc(OC)c3c4c(OC)cc(=O)c5c(O)c(OC)c6c(c(c1CC(C)=C6C(C)=O)c23)c54 [HB, 3,10-dihydroxyl-4,9-dione-1,12-(2′-methyl-3′-actyl-2′,3′-dehydro)propilidene(1′,3′)-2,6,7,11-tetramethoxyl-perylene, reference compound] | prominent lysosomal uptake, and endoplasmic reticulum (ER) staining; also recorded: mainly localized at lysosomal and endoplasmic reticulum | low toxicity | No DNA ladder was observed | No obvious DNA ladder was detected | characteristic DNA ladder observed | about 20 μM | 49.1±2.2 | 4.06 | 3.70 | 3.52 | 466 nm | 548 nm | 580 nm | induced apoptosis | appearance of hypoploid cell population | 10 fold | photopotentiation factor [3]: 10; Quantum yields (1O2), singlet oxygen yield [8]: 0.76; anti-AIDS action (AIDS): distinct anti-AIDS action; Relative quantum yields (O2−) [10]: 1
CCCCNc1c(O)c2c(=O)cc(OC)c3c4c(OC)cc(=O)c5c(O)c(OC)c6c(c(c1C(C(C)=O)=C(C)C6)c23)c54 [Example 2-BA-2-DMHB, 2-butylamino-2-demethoxy-hypocrellin B] | primarily at ER; also recorded: mainly localized at endoplasmic reticulum |  | No DNA ladder was observed | No obvious DNA ladder was detected | characteristic DNA ladder observed | more than 100 μM | 107.2±4.3 | 4.06 | 4.09 | 4.10 | 463 nm | 583 nm | 621 nm | induced apoptosis | appearance of hypoploid cell population | more than 250 fold | nuclear morphology in the absence of light irradiation (HeLa cells [12]; 4 μM, 6 h, dark control): remained intact; apoptotic nuclei after photosensitization (HeLa cells [12]; LD70, 24 h post-irradiation): apoptotic nuclei were detected; intra-cellular level relative to HB (HeLa cells [6]; equimolar levels of the drugs): approximately two fold as much as HB; also recorded: approximately two times as much as that of HB; extinction coefficient at 583 nm relative to HB at 548 nm [7]: 2.5 fold; extinction coefficient at 621 nm relative to HB at 580 nm [7]: over 3.8 fold; speed of apoptosis induction (HeLa cells [9]; post-irradiation, LD90): induced apoptosis more quickly than HB; Relative quantum yields (O2−) ([10]; listed as 2-BA-2-DMHD): 2.7; photopotentiation relative to HB (HeLa cells [11]; in vitro): over 25 fold; concentration causing 50% cytotoxicity at light dose of 24 J cm−2 (HeLa cells [11]; red light 24 J cm−2): 0.25–0.5 FM
COc1c(O)c2c(=O)cc(OC)c3c4c(OC)cc(=O)c5c(O)c(OC)c6c(c(c1CC(C)(O)C6C(C)=O)c23)c54 (stereo not drawn) [hypocrellin A, 3,10-dihydroxyl-4,9-dione-1,12-(2′-hydroxyl-2′-methyl-3′-actyl)propilidene(1′,3′)-2,6,7,11-tetramethoxyl-perylene] |  | low toxicity |  |  |  |  |  |  |  |  |  |  |  |  |  |  | 
